Where two headings read alike, the source gives them in different places. No end group written: not given here.
Legend:
PP1 and PP2A = conditions: refs [17], [19]; cited from earlier work
PP1GL = test: Phosphorylase phosphatase activity of PP1GL (hepatic glycogen particles); assay type: biochemical, rat
Method: Hepatic glycogen particles were diluted in assay buffer to 0.6 phosphorylase phosphatase (PhP) mU per ml, incubated for 15 minutes at 30° C. with GM-(G63-T93) (closed circles), GM-(G63-K80) (open circles) or GM-(G63-N75) (closed triangles) and assayed as described in Example 1. The open triangles show the effect of GM-(G63-N75) which had been phosphorylated at Ser67 by PKA (pGM-(G63-N75)). Similar results were obtained in four experiments.
(A) Hepatic glycogen protein particles containing PP1-GL were diluted and incubated for 15 min at 30° C. with the indicated concentrations of either M110[M1-F38] (open circles) or M110[M1-K35] (closed circles) and the phosphatase reactions were initiated by addition of ^32P-labelled glycogen phosphorylase. The results are expressed as a percentage of the activity determined in control incubations where the M110 peptides were omitted. Similar results were obtained in three separate experiments. (B) The experiment was carried out as in (A), except that the peptide GM[G63-N75] (“wild type”, WT) and variants in which either Val 66 (V66A) (closed triangles) or Phe 68 (F68A) (closed circles) were changed to Ala, were used instead of the M110 peptides. Similar results were obtained in three separate experiments.
(§1) The myosin-associated form of PP1 (PP1M) was from chicken gizzard and the glycogen-associated form of PP1 (PP1G) from rabbit skeletal muscle. The β isoform of PP1c was released from PP1G by incubation for 2 hours in 2M LiBr, then purified by gel-filtration on a 30×1 cm column of Superose 12 (Pharmacia, Milton Keynes, U.K.) in the presence of 0.5M LiBr. Glycogen protein particles from rat liver were used as the source of hepatic PP1G Digoxygenin-labelled PP1c (γ1-isoform, hereafter termed PP1) was prepared as in [9]. GL was expressed in E. coli as a glutathione-S-transferase (GST) fusion protein [7], termed GST-GL. The catalytic subunit of PP2A from bovine heart (PP2AC) was provided by Dr R. MacKintosh in this Unit. The phosphorylatable myosin light chain (MLC20) and heavy meromyosin from chicken gizzard were a gift from Dr M. Ikebe (Case Western Reserve University, Cleveland, USA). Thrombin and benzamidine-Agarose were purchased from Sigma (Poole, UK).
(§2) ^32P-labelled rabbit skeletal muscle phosphorylase a (containing 1.0 mol phosphate per mol subunit) was prepared by phosphorylation with phosphorylase kinase, ^32P-labelled rabbit skeletal muscle glycogen synthase (containing 1.5 mol/mol subunit in the sites 3 region) was prepared by phosphorylation with glycogen synthase kinase-3 [24]). ^32P-labelled chicken gizzard MLC20 and ^32P-labelled chicken gizzard heavy meromyosin (containing 1.0 mol phosphate per mol subunit) were prepared by phosphorylation with smooth muscle myosin light chain kinase. The dephosphorylation of phosphorylase a (10 μM), glycogen synthase (1 μM) and MLC20 (1 μM) and heavy meromyosin (1 μM) was carried out as in [24]. One unit of activity (U) was that amount which released […] of phosphate in one minute.
(§3) PP1c was isolated from the rabbit skeletal muscle PP1-GM complex as described previously (Johnson et al, 1996). Glycogen particles isolated from rat liver (Schelling el al, 1988) served as the source of PP1-GL. The dephosphorylation of glycogen phosphorylase (10 μM) and the isolated MLC20 of smooth muscle myosin (1 μM) by PP1c was carried out as described previously (Cohen et al., 1988; Alessi et al., 1992).

PP1c [1] = target: T1, PP1c (Oryctolagus cuniculus, UniProt P62143); test: Phosphorylase phosphatase activity of PP1c; assay type: biochemical, rabbit
T1 construct: from tissue; host or cells: rabbit skeletal muscle (PP1G dissociated with LiBr)
T1 sequence (P62143 whole entry): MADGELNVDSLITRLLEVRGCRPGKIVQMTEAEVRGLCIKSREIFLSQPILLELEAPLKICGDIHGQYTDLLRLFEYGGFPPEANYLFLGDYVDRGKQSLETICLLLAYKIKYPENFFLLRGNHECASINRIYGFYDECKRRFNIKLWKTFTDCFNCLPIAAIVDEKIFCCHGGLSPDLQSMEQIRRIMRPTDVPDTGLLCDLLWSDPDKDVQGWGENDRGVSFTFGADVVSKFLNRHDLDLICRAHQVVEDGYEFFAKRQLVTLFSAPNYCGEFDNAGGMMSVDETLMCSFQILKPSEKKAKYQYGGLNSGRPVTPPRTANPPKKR
Method: (§4) A,B; Effects of M110-(M1-E309) (closed circles), M110-(M1-F38) (open circles) and M110-(D39-E309) (open triangles) on the MLC20 phosphatase […] and phosphorylase phosphatase (B) activities of PP1c were measured after incubating PP1c for 15 minutes at 30° C. with each fragment. The results are presented as a percentage of those obtained in experiments where the M110 fragments were omitted.
(§5) C,D; The effect of M110-(M1-A150) (open circles) and M110-(L24-Y496) (closed circles) on the MLC20 phosphatase (C) and phosphorylase phosphatase (D) activities of PP1c were measured as in A,B.
(B) The phosphorylase phosphatase activity of PP1c was assayed as in A in the presence or absence of 1 μM GM-(G63-T93) and 1.0 nM M110-(M1-E309). The results are presented (SEM for three experiments) as a percentage of the PP1c activity measured in the absence of GM-(63-T93), M110-(M1-F38) or M110-(M1-E309).
as §1, §2, §3

PP1c (γ1-isoform) = PP1c (γ1-isoform) (Homo sapiens, UniProt P36873); test: Far Western: GST-GM fusion proteins probed with digoxygenin-labelled PP1γ; assay type: binding; conditions: GST-fusion proteins on blot probed with digoxygenin-labelled PP1γ
PP1c (γ1-isoform), sequence (P36873 whole entry, the tested form may be a part, canonical isoform): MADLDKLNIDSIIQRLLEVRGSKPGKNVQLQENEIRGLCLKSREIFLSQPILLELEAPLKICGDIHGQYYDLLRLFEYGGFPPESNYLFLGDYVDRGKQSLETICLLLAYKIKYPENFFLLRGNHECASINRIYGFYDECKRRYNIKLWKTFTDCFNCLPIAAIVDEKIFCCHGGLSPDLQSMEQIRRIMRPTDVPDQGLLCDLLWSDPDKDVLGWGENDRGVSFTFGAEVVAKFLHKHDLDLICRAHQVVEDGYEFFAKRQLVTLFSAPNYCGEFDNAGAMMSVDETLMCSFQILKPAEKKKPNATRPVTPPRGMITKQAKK
From the text: GST-GM fusion proteins were electrophoresed on 10% SDS/polyacrylamide gels and stained with Coomassie blue (lanes 1-3) or, after transfer to nitrocellulose, probed with digoxygenin-labelled PP1γ (lanes 4-6) as in [9]. Lanes 1 and 4, GST-GM-(E2-D118); Lanes 2 and 5, GST-GM-(H100-P350); Lanes 3 and 6, GST. The positions of the marker proteins glycogen phosphorylase (97 kDa), bovine serum albumin (66 kDa), ovalbumin (43 kDa), carbonic anhydrase (29 kDa) and soybean trypsin inhibitor (20 kDa) are indicated.
as §1, with “Thrombin and benzamidine-Agarose were purchased from Sigma (Poole, UK).” left out

PP1c [2] = target: T1, PP1c; test: MLC20 (myosin P-light chain) phosphatase activity of PP1c; assay type: biochemical
Method: as §4, §5
(A) The MLC20 phosphatase activity of PP1c was assayed after incubation for 15 minutes at 30° C. in the presence or absence of 1 μM GM-(G63-T93) and either 0.1 μM M110-(M1-F38) or 0.1 nM M110-(M1-E309).
(1-38, open circles) or M110[M1-K35] (1-35, closed circles) were incubated with PP1c for 15 min at 30° C. and reactions started with the ^32P-labelled MLC20 substrate. The results are expressed as a % of the activity determined in control incubations where the M110 peptides were omitted (100%). Similar results were obtained in three separate experiments.
as §1, §2, §3
^32P-labelled myosin P-light chains containing 1.0 mol phosphate per mol subunit was prepared by phosphorylation with smooth muscle myosin light chain kinase. The dephosphorylation of myosin P-light chain (1 μM) was carried out as in [4] and one unit of activity (U) was that amount which catalysed the release of 1 μmole of phosphate in one min. When assaying PP1M in immunoprecipitates from the myofibrillar extracts, the tubes were shaken continuously and 3 nM okadaic acid was included to inhibit any PP2A present.

PP1c [3] = target: T1, PP1c; test: Dephosphorylation of heavy meromyosin by PP1c; assay type: biochemical, rabbit; conditions: data not shown
Method: as §2

PP1c [4] = target: T1, PP1c; test: Glycogen synthase phosphatase activity of PP1c; assay type: biochemical, rabbit
Method: The glycogen synthase phosphatase activity of PP1c was measured after a 15 minute incubation at 30° C. with the indicated concentrations of M110-(M1-F38) and M110-(M1-E309). Similar results were obtained in three different experiments.
as §2

Q: With `C=C1[C@@H](O)[C@@H]2O[C@]3(CC[C@H](/C=C/[C@@H](C)[C@@H]4CC(C)=C[C@@]5(O[C@H](C[C@@](C)(O)C(=O)O)CC[C@H]5O)O4)O3)CC[C@H]2O[C@@H]1[C@@H](O)C[C@H](C)[C@H]1O[C@@]2(CCCCO2)CC[C@H]1C` [okadaic acid] as the molecule, how does the “relative potency as inhibitor of PP1 and PP2A” value (PP1 and PP2A) read?
A: a much more potent inhibitor of PP2A than PP1

Q: Which “relative potency as inhibitor of PP1 and PP2A” value (PP1 and PP2A) does the source give for `CO[C@H]([C@H](O)CC(=O)[C@@H](C)[C@@H](O)CC[C@@H](C)[C@@H]1O[C@]2(CC[C@@H](C)[C@H](CC[C@H](C)C(C)=O)O2)CC[C@@H]1C)[C@H](OC(=O)C[C@@H](O)C1=C(C)C(=O)OC1=O)C(C)C` [tautomycin] here?
A: a much more potent inhibitor of PP1 than PP2A

Q: For “GM-(E81-T93): peptide generated by cleaving GM-(G63-T93) with Lys-C endoproteinase (DCWELPSASTTFD; UniProt Q16821 81-93, looked up, fragment)”, which “effect on the phosphorylase phosphatase activity of PP1GL” value (PP1GL; at concentrations up to 10 μM) is on record?
A: no effect

Q: And the “effect on the phosphorylase phosphatase activity of PP1c” value (PP1c [1]; at concentrations up to 10 μM)?
A: no effect

Q: With “GM-(G63-N75): synthetic 13 residue peptide, residues 63-75 of GM (GRRVSFADNFGFN)” as the molecule, how does the “effect on the phosphorylase phosphatase activity of PP1GL” value (PP1GL; hepatic glycogen particles containing PP1-GL) read?
A: increased the phosphorylase phosphatase activity of PP1GL, but were less effective than GM-(G63-T93)

Q: What about the “effect on the phosphorylase phosphatase activity of PP1c” value (PP1c [1]; at concentrations up to 10 μM) of the same molecule?
A: did not increase the phosphorylase phosphatase activity of PP1c significantly

Q: Which results are given for “GST: glutathione-S-transferase [reference compound]”?
A: effect on the phosphorylase phosphatase activity of PP1c (PP1c [1]): no effect; interaction with PP1 in Far Western experiments (PP1c (γ1-isoform)): did not interact with PP1c; effect on the MLC20 phosphatase activity of PP1c (PP1c [2]): no effect

Q: For “MKMADAKQKRNEQLKRWIGSETDLEPPVVKRQKTKVKF [M110-(M1-F38)]”, which “displacement of GL from PP1c” value (PP1GL) is on record?
A: capable of displacing GL from PP1GL

Q: What about the “increase in the phosphorylase phosphatase activity of PP1GL” value (PP1GL; 10 μM peptide) of the same molecule?
A: 3.5 fold

Q: What about the “effect on the dephosphorylation of heavy meromyosin by PP1c” value (PP1c [3]) of the same molecule?
A: stimulated the dephosphorylation of heavy meromyosin in a similar manner to the dephosphorylation of MLC20

Q: What about the “effect on the dephosphorylation of glycogen synthase by PP1c” value (PP1c [4]) of the same molecule?
A: greatly enhanced

Q: What about the “effect on the phosphorylase phosphatase activity of PP1c” value (PP1c [1]) of the same molecule?
A: did not inhibit the phosphorylase phosphatase activity of PP1c

Q: What about the “effect on the phosphorylase phosphatase activity of PP1c” value (PP1c [1]; each peptide individually, at concentrations up to 1 μM) of the same molecule?
A: no effect

Q: And the EC50 (PP1c [2])?
A: 10 nM

Q: And the “concentration needed to modulate the specificity of PP1c compared to thrombin-cleaved M110-(M1-E309)” value (PP1c [2])?
A: at least 100 fold higher

Q: What about the “effect on the MLC20 phosphatase activity of PP1c” value (PP1c [2]) of the same molecule?
A: stimulate the MLC20 phosphatase activity of PP1c to the same extent as M110-(M1-E309)

Q: And the “increase in PP1c activity towards MLC20 (maximal activation)” value (PP1c [2])?
A: 3 fold

Q: And the “peptide concentration at maximal activation of the myosin light chain phosphatase activity of PP1c” value (PP1c [2])?
A: 1 µM

From patent US6884600B1, “Protein phosphatase-1 catalytic subunit interactions” (Medical Research Council London, priority 1996, dated 2005)
